Drawing on US12195482B1 (Arcus Biosciences, Inc., priority 2022, dated 2025), this text covers IC50 for two molecules.

One assay has as its target T1, recombinant human MER (Homo sapiens, UniProt Q12866).
T1 construct: purchased Invitrogen
T1 sequence (Q12866 21-999): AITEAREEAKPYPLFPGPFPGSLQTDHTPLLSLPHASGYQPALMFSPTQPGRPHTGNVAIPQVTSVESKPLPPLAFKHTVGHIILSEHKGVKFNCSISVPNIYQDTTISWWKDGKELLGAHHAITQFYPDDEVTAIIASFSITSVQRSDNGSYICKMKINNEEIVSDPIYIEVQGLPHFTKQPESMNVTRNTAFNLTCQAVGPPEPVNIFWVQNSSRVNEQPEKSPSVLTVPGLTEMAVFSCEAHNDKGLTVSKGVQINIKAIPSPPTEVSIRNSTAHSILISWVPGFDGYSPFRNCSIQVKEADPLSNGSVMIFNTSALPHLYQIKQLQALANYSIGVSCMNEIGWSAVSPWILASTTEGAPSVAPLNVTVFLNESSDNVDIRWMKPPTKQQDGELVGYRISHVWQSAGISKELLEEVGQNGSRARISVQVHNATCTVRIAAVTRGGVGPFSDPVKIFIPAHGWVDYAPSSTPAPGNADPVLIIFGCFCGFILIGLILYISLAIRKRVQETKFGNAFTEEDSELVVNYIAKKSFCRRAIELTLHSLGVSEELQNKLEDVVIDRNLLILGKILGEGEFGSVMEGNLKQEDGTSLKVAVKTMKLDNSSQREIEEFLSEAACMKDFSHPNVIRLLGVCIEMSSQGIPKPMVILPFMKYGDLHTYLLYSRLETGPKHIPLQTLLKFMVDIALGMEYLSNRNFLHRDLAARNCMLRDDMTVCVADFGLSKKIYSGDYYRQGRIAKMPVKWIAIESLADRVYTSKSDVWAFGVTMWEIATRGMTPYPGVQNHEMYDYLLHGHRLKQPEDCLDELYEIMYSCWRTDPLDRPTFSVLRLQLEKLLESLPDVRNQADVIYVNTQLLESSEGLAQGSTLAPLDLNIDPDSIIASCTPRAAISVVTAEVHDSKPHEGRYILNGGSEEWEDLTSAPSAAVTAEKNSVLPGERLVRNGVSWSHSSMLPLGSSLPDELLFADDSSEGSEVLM
Description: Biochemical potency, HTRF KinEASE-TK kinase assay. The settings on record: 1 nM MER, 700 μM ATP. The essentials:
(§1)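 Phosphorylation of a biotinylated tyrosine-kinase peptide (800 nM) by AXL (5 nM) or TYRO3/MER (1 nM) is measured at 700 µM ATP after 2 h at room temperature, following 1 h enzyme–compound preincubation. Signal is the time-resolved FRET ratio, converted to percent activity.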
For orientation: Time-resolved FRET reads energy transfer from a long-lived donor to a nearby acceptor.

The target in another assay is T2, recombinant human TYRO3 (Homo sapiens, UniProt Q06418).
T2 construct: purchased Invitrogen
T2 sequence (Q06418 41-890): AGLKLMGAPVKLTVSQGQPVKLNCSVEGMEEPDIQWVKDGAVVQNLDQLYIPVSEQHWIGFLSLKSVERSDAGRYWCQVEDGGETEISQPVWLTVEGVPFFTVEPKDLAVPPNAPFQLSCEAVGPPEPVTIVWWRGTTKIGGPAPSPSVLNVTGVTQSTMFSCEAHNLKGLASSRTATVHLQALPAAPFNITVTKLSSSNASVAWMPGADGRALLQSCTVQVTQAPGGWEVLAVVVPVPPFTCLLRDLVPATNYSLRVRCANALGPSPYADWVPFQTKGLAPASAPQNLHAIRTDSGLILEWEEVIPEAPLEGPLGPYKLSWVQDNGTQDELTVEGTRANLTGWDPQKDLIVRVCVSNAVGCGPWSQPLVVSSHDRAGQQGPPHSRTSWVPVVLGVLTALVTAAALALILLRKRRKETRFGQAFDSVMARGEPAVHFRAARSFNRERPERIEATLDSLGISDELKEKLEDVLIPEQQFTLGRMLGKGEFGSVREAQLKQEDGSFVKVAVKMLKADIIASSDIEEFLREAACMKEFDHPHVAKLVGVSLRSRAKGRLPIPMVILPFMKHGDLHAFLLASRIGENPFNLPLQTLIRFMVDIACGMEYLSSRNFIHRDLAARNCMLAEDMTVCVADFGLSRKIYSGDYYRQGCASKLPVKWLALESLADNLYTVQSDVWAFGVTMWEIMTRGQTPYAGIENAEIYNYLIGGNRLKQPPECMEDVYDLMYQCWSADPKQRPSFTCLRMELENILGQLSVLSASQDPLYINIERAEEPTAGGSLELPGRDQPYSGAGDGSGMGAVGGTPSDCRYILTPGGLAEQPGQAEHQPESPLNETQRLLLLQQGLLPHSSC
The assay can be described thus: Biochemical potency, HTRF KinEASE-TK kinase assay. The settings on record: 1 nM TYRO3, 700 μM ATP. Put shortly: as §1

As a reminder, the IC50 is the point on the concentration scale where inhibition reaches its midpoint. As to `Cc1ncc(C)c(-c2ccc(-c3n[nH]c4ncc(-c5ccc6c(c5)CC[C@@H](N5C7COCC5C7)CC6)cc34)cc2)n1` [Example 122, 6-[(7S)-2-{3-[4-(2,5-Dimethylpyrimidin-4-yl)phenyl]-1H-pyrazolo[3,4-b]pyridin-5-yl}-6,7,8,9-tetrahydro-5H-benzo[7]annulen-7-yl]-3-oxa-6-azabicyclo[3.1.1]heptane], the figures for the IC50 at recombinant human MER and on recombinant human TYRO3 were 0.1 to 1 µM and less than 0.1 µM, respectively.

For `c1ccc(-n2cc(-c3n[nH]c4ncc(-c5ccc6c(c5)CC[C@@H](N5C7COCC5C7)CC6)cc34)cn2)nc1` [Example 168, 6-[(7S)-2-{3-[1-(Pyridin-2-yl)-1H-pyrazol-4-yl]-1H-pyrazolo[3,4-b]pyridin-5-yl}-6,7,8,9-tetrahydro-5H-benzo[7]annulen-7-yl]-3-oxa-6-azabicyclo[3.1.1]heptane], the IC50 at recombinant human MER and at recombinant human TYRO3 was 0.1 to 1 µM each time.
